# What was measured:
# [1] = test system: telomeres; assay: Telomere length assay (real-time PCR); type: cell-based, human
# Method: Genomic DNA was extracted from cells and the average telomere length was assessed by a modified method of the real-time PCR-based telomere assay described previously (Cawthon et al., Nucleic Acids Res. 30: e47, 2002; Cawthon, Nucleic Acids Res. 37: e21, 2009). Briefly, the telomere repeat copy number to single gene copy number (T/S) ratio was determined using a Bio-Rad IQ5 thermocycler. Genomic DNA (5 ng) was subjected to PCR reactions and detected with SYBR Green Super Mix (Bio-Rad). The primers for telomere length and HBG1 (a single copy gene) were as follows. Reaction conditions were: 1 cycle, 95° C., 5 minutes; 41 cycles, 95° C., 15 seconds,; 1 cycle, 60° C. for 45 seconds. All reactions were carried out in triplicate and compared to a standard curve of 0, 0.2, 1, 5, 25 and 125 ng genomic DNA (telomere length 10.4 kb) from Roche Telo-kit. The T/S ratio (dCt) for each sample was calculated by normalizing the average HBG Ct value to the average telomere Ct value.
# [2] = test system: primary human foreskin keratinocytes; settings: cited from earlier work
smiles,measurement,setting,value
"CC(N)[C@H]1CC[C@H](C(=O)Nc2ccncc2)CC1 (single isomer, unassigned; (+)) [Y-27632, (+)-trans-N-(4-Pyridyl)-4-(1-aminoethyl)-cyclohexanecarboxamide]",relative length of telomeres,[1]; passage 50 to 120,became stable
same,relative length of telomeres,"[1]; with passage in Y-27632, FIG. 11B",became progressively shorter with passage
same,colony forming ability,[2],increase the colony forming ability
